Assay results reported in patent publication US6733982B1, “Method for screening compounds for alpha1B adrenergic receptor antagonist and analgesic activity” (Syntex (U.S.A.) LLC, priority 1999, dated 2004).

Legend:
[1] = system: neuropathic rats (chronic constriction injury); experiment: Cold allodynia response (cold bath assay) in neuropathic (chronic constriction injury) rats; type: in vivo, rat
Method: This experiment was conducted to evaluate the effects of 4-(2-benzofuran-7-yl-5-oxo-oxazol-4-ylidenemethyl)-N-phenyl-piperazine-1-carboxamidine hydrochloride, and similar or related compounds, on the cold allodynia response in neuropathic rats. The test apparatus and methods of behavioral testing is described in Gogas et al. (1997) Analgesia 3:111-118.
Male Sprague-Dawley rats (Harlan), 160-200 g, were surgically prepared to have a chronic constriction injury (CCl) as described above 6 days prior to testing. Rats were selected for the study according to the following criteria: 1) the average of two trials was less than or equal to 13 sec; and 2) there was consistency across the two trial scores. Animals were screened for hypersensitivy to cold on post-surgery days 4 through 10, and selected for inclusion in dose-response studies based on the criteria described above. The pre-dose screening values were used as the animals' baseline cold allodynia scores.
Selected rats were tested twice in the cold bath assay described above for a pre-dose baseline and randomly assigned to treatment groups and dosed at 0 (vehicle, 10 ml/kg, 0.5% CMC, 30, 100 or 300 μg/kg, i.p. After 1 hour and 3 hours post-dosing, rats were tested in the cold bath assay. For each rat, the assay was run once at 1 and 3 hours post-dose. The time to raise the rear leg was recorded in each trial. The maximal observing time in each trial was 20 seconds.
(§1) Male Sprague-Dawley rats (Harlan), 160-270 g, were surgically prepared to have a chronic constriction injury (CCl) as described above 5 days prior to testing. Rats were selected and tested as described in Example 3. Selected rats were dosed at 0 (vehicle, 10 mL/kg, deionized water), 30 or 300 μg/kg, i.p. After 20 min and 40 minutes post-dosing, rats were tested in the cold bath assay.
as §1, with “170-270” for “160-270”, “14” for “5”
(§2) Heat and cold allodynia responses can be evaluated as described below in rats having a chronic constriction injury (CCl). A unilateral mononeuropathy is produced in rats using the chronic constriction injury model described in Bennett et al. (1988) Pain 33:87-107.
(§3) CCl is produced in anesthetized rats as follows. The lateral aspect of each rat's hind limb is shaved and scrubbed with Nolvasan. Using aseptic techniques, an incision is made on the lateral aspect of the hind limb at the mid-thigh level. The biceps femoris is bluntly dissected to expose the sciatic nerve. On the right hind limb of each rat, four loosely tied ligatures (for example, Chromic gut 4.0; Ethicon, Johnson and Johnson, Somerville, N.J.) are made around the sciatic nerve approximately 1-2 mm apart. On the left side of each rat, an identical dissection is performed except that the sciatic nerve is not ligated (sham). The muscle is closed with a continuous suture pattern with, e.g., 4-0 Vicryl (Johnson and Johnson, Somerville, N.J.) and the overlying skin is closed with wound clips. The rats are ear-tagged for identification purposes and returned to animal housing.

[2] = system: neuropathic rats (chronic constriction injury); experiment: Pain response to radiant heat in neuropathic (chronic constriction injury) rats; type: in vivo, rat; conditions: CCI rats
Method: Male Sprague-Dawley rats (Harlan), 240-300 g, were surgically prepared to have a chronic constriction injury (CCl) as described above 13-15 days prior to testing. Rats were selected for the study according to the following criteria: ligated leg (LL)latency−4 to 14 seconds; sham leg (LS) latency−6 to 18 seconds; difference (LDiff=LL−LS)−greater than 1.5 seconds. Selected rats were randomly assigned to treatment groups and dosed at 0 (vehicle, 10 ml/kg, 0.5% CMC, 30, 60, 100 or 300 μg/kg, i.p. After 45 minutes post-dosing, rats were placed under inverted plastic cages on an elevated glass platform. Following 15 minutes of acclimatization, a radiant heat source, e.g., light was placed below the glass and illuminated in order for the glass to reach a temperature of 80-82° F. For each rat, four trials of each of the following were performed: shone light on the left hind paw (sham) and recorded the latency when the paw was withdrawn; shone light on the right hind paw (ligated) and recorded the latency when the paw was withdrawn. Five minute intervals were allowed between trials. Hind paws were examined for redness and blistering after each test.
Male Sprague-Dawley rats (Harlan), 240-300 g, were surgically prepared to have a CCl as described above 19-21 days prior to testing. Rats were selected for the study according to the following described in Example 2. Selected rats were randomly assigned to treatment groups and dosed with 4-(2-naphthalen-1-yl-5-oxo-oxazol-4-ylidenemethyl)-N-phenyl-piperazine-1-carboxamidine at 0 (vehicle, 10 mL/kg deionized water, 30, 60, 100, 300 or 1000 μg/kg, i.p. After 1 hour post-dosing, rats were tested as described in Example 2.
as §2, §3

[3] = molecular target: T1, alpha1B adrenergic receptor (Homo sapiens, UniProt P35368); experiment: [3H]prazosin radioligand binding on membranes of alpha1 adrenergic receptor transfected CHO-K1 cells; conditions: methods of Example 1: alpha1A, alpha1B and alpha1D transfected CHO-K1 cells
T1 construct: expressed in transfected cells; host or cells: CHO-K1
T1 sequence (P35368 1-520): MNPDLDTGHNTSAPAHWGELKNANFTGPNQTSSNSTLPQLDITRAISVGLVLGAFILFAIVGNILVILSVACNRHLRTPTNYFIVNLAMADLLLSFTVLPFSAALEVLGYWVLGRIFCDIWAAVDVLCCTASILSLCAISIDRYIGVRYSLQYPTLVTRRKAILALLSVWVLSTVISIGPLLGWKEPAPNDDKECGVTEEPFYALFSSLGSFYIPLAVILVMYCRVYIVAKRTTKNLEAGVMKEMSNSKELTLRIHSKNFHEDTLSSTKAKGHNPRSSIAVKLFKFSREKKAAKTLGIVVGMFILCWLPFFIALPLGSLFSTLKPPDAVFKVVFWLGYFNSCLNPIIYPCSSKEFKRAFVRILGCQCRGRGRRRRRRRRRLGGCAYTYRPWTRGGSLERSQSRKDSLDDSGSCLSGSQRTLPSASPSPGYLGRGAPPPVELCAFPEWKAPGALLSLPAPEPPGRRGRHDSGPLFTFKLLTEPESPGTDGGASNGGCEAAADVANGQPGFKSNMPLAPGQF
Method: Alpha1A, alpha1B and Alpha1D adrenergic receptor transfected CHO-K1 cells, prepared using the methods described in Chang et al. (1998) FEBS Lett. 422:279-283, were grown to confluence in T-162 tissue culture flasks in Ham's F-12 culture medium supplemented with 10% fetal bovine serum, geneticin (150 μg/ml) and streptomycin: penicillin (30 μg/ml:30 μg/ml) at 37° C. in 7% CO2. Cells were harvested by incubating with phosphate-buffered saline (PBS) containing 30 μM EDTA for 5-10 min at 37° C. Cells were pelleted by centrifuging at 500×g for 5 min, the pelleted cells were homogenized (Polytron homogenizer) in 10 vols (w/v) of 50 mM Tris, 1 mM EDTA, (homogenisation buffer, pH 7.4 at 4° C.). The homogenate was centrifuged at 45,000×g for 20 min. […]
The membranes were thawed at room temperature and diluted in assay buffer (50 mM Tris, pH 7.4) at 37° C. and homogenized using the Polytron tissue disrupter. […] Scintillation cocktail was added to the filter plates and bound radioligand determined by liquid scintillation spectrophotometry.
For each experiment, total binding (in the absence of any test or reference compounds) and non specific binding (10 μM phentolamine) were determined. […] If the radioligand KD was known, the inhibition dissociation constant (Ki) of each ligand was determined according to the method of Cheng et al. (1973) Biochem. Pharmacol. 22:3099-3108).

[4] = 300 μg/kg i.p., 40 min post-dose
[5] = 60 μg/kg i.p., about 1 hour post-dosing
[6] = 100 μg/kg i.p., about 1 hour post-dosing
[7] = 300 μg/kg i.p., about 1 hour post-dosing
[8] = 100 μg/kg i.p., 1 hour post-dose, p<0.01
[9] = 300 μg/kg i.p., 1 hour post-dose, p<0.01
[10] = 300 μg/kg i.p., 3 hours post-dose, p<0.05

Row | Compound | cold allodynia: change in latency from pre-dose compared to vehicle group [1, 4] | cold allodynia: latency times compared to vehicle control [1, 4] | effect in the radiant heat assay (paw withdrawal latency) [2, 5] | effect in the radiant heat assay (paw withdrawal latency) [2, 6] | effect in the radiant heat assay (paw withdrawal latency) [2, 7] | effect in the radiant heat assay (paw withdrawal latency) ([2]; 1000 μg/kg i.p., 1 hour post-dosing) | cold allodynia: change in latency from pre-dose compared to vehicle group ([1]; 30 μg/kg i.p., 20 min post-dose) | cold allodynia: change in latency from pre-dose compared to vehicle group ([1]; 300 μg/kg i.p., 20 min post-dose) | cold allodynia: latency times compared to pre-dose [1, 4] | cold allodynia: latency times compared to pre-dose ([1]; 20 min post-dose, i.p. (doses tested 30 or 300 μg/kg; dose not given)) | identification as selective alpha1B adrenergic receptor antagonist [3] | cold allodynia: actual latency times compared to vehicle [1, 8] | cold allodynia: changes from pre-dose compared to vehicle [1, 8] | cold allodynia: actual latency times compared to vehicle [1, 9] | cold allodynia: changes from pre-dose compared to vehicle [1, 9] | cold allodynia: actual latency times compared to vehicle [1, 10] | cold allodynia: changes from pre-dose compared to vehicle [1, 10]
1 | Cc1c[nH]c(=O)n(CCCN2CCN(c3ccccc3OCC(F)(F)F)CC2)c1=O [3-(3-{4-[2-(2,2,2-trifluoroethoxy)phenyl]-piperazin-1-yl}propyl)-5-methyl-2,4(1H,3H)-pyrimidinedione, reference compound] | significant changes | significant increase in latency times | – | – | – | – | – | – | – | – | – | – | – | – | – | – | –
2 | N=C(Nc1ccccc1)N1CCN(C=C2N=C(c3cccc4ccccc34)OC2=O)CC1 [4-(2-naphthalen-1-yl-5-oxo-oxazol-4-ylidenemethyl)-N-phenyl-piperazine-1-carboxamidine] | significant change from pre-dose | – | significant effect | significant effect | significant effect | significant effect | significant increase in latency from pre-dose | significant increase in latency from pre-dose | significant increase in latency | significant change in latency times | identified as a selective alpha1B adrenergic receptor antagonist | – | – | – | – | – | –
3 | Cl.N=C(Nc1ccccc1)N1CCN(C=C2N=C(c3cccc4ccoc34)OC2=O)CC1 [4-(2-benzofuran-7-yl-5-oxo-oxazol-4-ylidenemethyl)-N-phenyl-piperazine-1-carboxamidine hydrochloride] | – | – | significant effect | significant effect | significant effect | – | – | – | – | – | identified as selective alpha1B adrenergic receptor antagonists | significantly higher than vehicle | significantly higher than vehicle | significantly higher than vehicle | significantly higher than vehicle | significantly higher than vehicle | significantly higher than vehicle
